Data from patent EP0908457B1, “3-(1,2-benzisothiazol- and isoxazol-5-Y1)-2,4(1H,3H)-pyrimidinedione or thione and 3-(1,2-benzisothiazol- and isoxazol-5-y1)-4(3H)-pyrimidinone or thione herbicidal agents” (BASF AKTIENGESELLSCHAFT, priority 1997, dated 1999).

What was measured:
[1] = tested on: Echinochloa oryzoides (Ard.) Fritsch.; assay: Preemergence weed control under flooded paddy conditions, ECHORC (Watergrass (Calif.)); type: in vivo; details: flooded paddy, rated three to four weeks after treatment; for herbicidal effect rating, ECHORC: meaning of each grade not given here
[2] = tested on: Sagittaria pygmaea, L.; assay: Preemergence weed control under flooded paddy conditions, SAGPY (Arrowhead (Pygmaea)); type: in vivo; details: flooded paddy, rated three to four weeks after treatment; for herbicidal effect rating, SAGPY: meaning of each grade not given here
[3] = tested on: Monochoria vaginalis, Presl.; assay: Preemergence weed control under flooded paddy conditions, MOOVA (Monochoria); type: in vivo; details: flooded paddy, rated three to four weeks after treatment; for herbicidal effect rating, MOOVA: meaning of each grade not given here
[4] = tested on: Oryza sativa, (L.) Tebonnet; assay: Rice tolerance to post-transplant applications under flooded paddy conditions (Example 187), ORYSAT (Rice, Tebonnet); details: rated three to four weeks after treatment; for herbicidal effect rating ORYSAT: meaning of each grade not given here
[5] = tested on: Cyperus serotinus, Rottb.; assay: Preemergence weed control under flooded paddy conditions, CYPSE (Flatsedge); type: in vivo; details: rated three to four weeks after treatment; for herbicidal effect rating, CYPSE: meaning of each grade not given here
[6] = tested on: Cyperus iria; assay: Preemergence weed control under flooded paddy conditions, CYPIR (Rice Flatsedge); type: in vivo; details: flooded paddy, rated three to four weeks after treatment; for herbicidal effect rating, CYPIR: meaning of each grade not given here
[7] = Rate 0.0320 kg/ha, preemergence
[8] = Rate 0.0620 kg/ha, preemergence
[9] = Rate 0.1250 kg/ha, preemergence
[10] = Rate 0.2500 kg/ha, preemergence
[11] = 0.0313 kg/ha, preemergence weeds
[12] = 0.0625 kg/ha, preemergence weeds
[13] = 0.1250 kg/ha, preemergence weeds
[14] = 0.2500 kg/ha, preemergence weeds
[15] = Rate 0.5000 kg/ha, preemergence

## C=C(Cl)COC(=O)c1nsc2ccc(-n3c(=O)cc(C(F)(F)F)n(C)c3=O)cc12 [Example 386, 1,2-Benzisothiazole-3-carboxylic acid, 5-[3,6-dihydro-3-methyl-2,6-dioxo-4-(trifluoromethyl)-1(2H)-pyrimidinyl]-, 2-chloroallyl ester]
[1]; [7]
  herbicidal effect rating, ECHORC: 0.0
[1]; [8]
  herbicidal effect rating, ECHORC: 3.0
[1]; [9]
  herbicidal effect rating, ECHORC: 4.0
[1]; [10]
  herbicidal effect rating, ECHORC: 5.0
[2]; [7]
  herbicidal effect rating, SAGPY: 4.0
[2]; [8]
  herbicidal effect rating, SAGPY: 7.0
[2]; [9]
  herbicidal effect rating, SAGPY: 9.0
[2]; [10]
  herbicidal effect rating, SAGPY: 9.0
[3]; [7]
  herbicidal effect rating, MOOVA: 9.0
[3]; [8]
  herbicidal effect rating, MOOVA: 9.0
[3]; [9]
  herbicidal effect rating, MOOVA: 9.0
[3]; [10]
  herbicidal effect rating, MOOVA: 9.0
[4]; Rate 0.0320 kg/ha
  herbicidal effect rating ORYSAT: 5.0
[4]; Rate 0.0620 kg/ha
  herbicidal effect rating ORYSAT: 5.0
[4]; Rate 0.1250 kg/ha
  herbicidal effect rating ORYSAT: 5.0
[4]; Rate 0.2500 kg/ha
  herbicidal effect rating ORYSAT: 5.0
[5]; [7]
  herbicidal effect rating, CYPSE: 3.0
[5]; [8]
  herbicidal effect rating, CYPSE: 7.0
[5]; [9]
  herbicidal effect rating, CYPSE: 7.0
[5]; [10]
  herbicidal effect rating, CYPSE: 7.0
[6]; [7]
  herbicidal effect rating, CYPIR: 7.0
[6]; [8]
  herbicidal effect rating, CYPIR: 9.0
[6]; [9]
  herbicidal effect rating, CYPIR: 9.0
[6]; [10]
  herbicidal effect rating, CYPIR: 9.0

## Cn1c(C(F)(F)F)cc(=O)n(-c2ccc3snc(COCCCl)c3c2)c1=O [Example 198, 3-{3-[(2-Chloroethoxy)methyl]-1,2-benzisothiazol-5-yl}-1-methyl-6-(trifluoromethyl)-2,4(1H,3H)-pyrimidinedione]
[1]; [11]
  herbicidal effect rating, ECHORC: 4.0
[1]; [12]
  herbicidal effect rating, ECHORC: 6.0
[1]; [13]
  herbicidal effect rating, ECHORC: 9.0
[1]; [14]
  herbicidal effect rating, ECHORC: 9.0
[2]; [11]
  herbicidal effect rating, SAGPY: 0.0
[2]; [12]
  herbicidal effect rating, SAGPY: 0.0
[2]; [13]
  herbicidal effect rating, SAGPY: 2.0
[2]; [14]
  herbicidal effect rating, SAGPY: 4.0
[3]; [11]
  herbicidal effect rating, MOOVA: 9.0
[3]; [12]
  herbicidal effect rating, MOOVA: 9.0
[3]; [13]
  herbicidal effect rating, MOOVA: 9.0
[3]; [14]
  herbicidal effect rating, MOOVA: 9.0
[4]; 0.0313 kg/ha
  herbicidal effect rating, ORYSAT (rice tolerance): 4.0
[4]; 0.0625 kg/ha
  herbicidal effect rating, ORYSAT (rice tolerance): 7.0
[4]; 0.1250 kg/ha
  herbicidal effect rating, ORYSAT (rice tolerance): 8.0
[4]; 0.2500 kg/ha
  herbicidal effect rating, ORYSAT (rice tolerance): 9.0
[5]; [11]
  herbicidal effect rating, CYPSE: 0.0
[5]; [12]
  herbicidal effect rating, CYPSE: 2.0
[5]; [13]
  herbicidal effect rating, CYPSE: 4.0
[5]; [14]
  herbicidal effect rating, CYPSE: 8.0
[6]; [11]
  herbicidal effect rating, CYPIR: 0.0
[6]; [12]
  herbicidal effect rating, CYPIR: 2.0
[6]; [13]
  herbicidal effect rating, CYPIR: 4.0
[6]; [14]
  herbicidal effect rating, CYPIR: 7.0

## CC(C)OC(=O)C(C)(C)c1nsc2ccc(-n3c(=O)cc(C(F)(F)F)n(C)c3=O)cc12 [Example 489, 1,2-Benzisothiazole-3-acetic acid, 5-[3,6-dihydro-3-methyl-2,6-dioxo-4-(trifluoromethyl)-1(2H)-pyrimidinyl]-alpha,alpha-dimethyl-, isopropyl ester]
[1]; 0.0320 kg/ha, preemergence
  ECHORC herbicidal rating: 7.0
[1]; 0.0620 kg/ha, preemergence
  ECHORC herbicidal rating: 7.0
[1]; 0.1250 kg/ha, preemergence
  ECHORC herbicidal rating: 9.0
[1]; 0.2500 kg/ha, preemergence
  ECHORC herbicidal rating: 9.0
[2]; 0.0320 kg/ha, preemergence
  SAGPY herbicidal rating: 6.0
[2]; 0.0620 kg/ha, preemergence
  SAGPY herbicidal rating: 9.0
[2]; 0.1250 kg/ha, preemergence
  SAGPY herbicidal rating: 9.0
[2]; 0.2500 kg/ha, preemergence
  SAGPY herbicidal rating: 9.0
[3]; 0.0320 kg/ha, preemergence
  MOOVA herbicidal rating: 9.0
[3]; 0.0620 kg/ha, preemergence
  MOOVA herbicidal rating: 9.0
[3]; 0.1250 kg/ha, preemergence
  MOOVA herbicidal rating: 9.0
[3]; 0.2500 kg/ha, preemergence
  MOOVA herbicidal rating: 9.0
[4]; 0.0320 kg/ha
  ORYSAT herbicidal rating (rice tolerance): 5.0
[4]; 0.0620 kg/ha
  ORYSAT herbicidal rating (rice tolerance): 6.0
[4]; 0.1250 kg/ha
  ORYSAT herbicidal rating (rice tolerance): 6.0
[4]; 0.2500 kg/ha
  ORYSAT herbicidal rating (rice tolerance): 6.0
[5]; 0.0320 kg/ha, preemergence
  CYPSE herbicidal rating: 6.0
[5]; 0.0620 kg/ha, preemergence
  CYPSE herbicidal rating: 7.0
[5]; 0.1250 kg/ha, preemergence
  CYPSE herbicidal rating: 9.0
[5]; 0.2500 kg/ha, preemergence
  CYPSE herbicidal rating: 9.0
[6]; 0.0320 kg/ha, preemergence
  CYPIR herbicidal rating: 6.0
[6]; 0.0620 kg/ha, preemergence
  CYPIR herbicidal rating: 9.0
[6]; 0.1250 kg/ha, preemergence
  CYPIR herbicidal rating: 9.0
[6]; 0.2500 kg/ha, preemergence
  CYPIR herbicidal rating: 9.0

## Cn1c(C(F)(F)F)cc(=O)n(-c2ccc3snc(/C=C/CBr)c3c2)c1=O [Example 360, 2,4(1H,3H)-Pyrimidinedione, 3-[3-(3-bromopropenyl)-1,2-benzisothiazol-5-yl]-1-methyl-6-(trifluoromethyl)-, (E)-]
[1]; [7]
  herbicidal effect rating, ECHORC: 0.0
[1]; [8]
  herbicidal effect rating, ECHORC: 2.0
[1]; [9]
  herbicidal effect rating, ECHORC: 5.0
[1]; [10]
  herbicidal effect rating, ECHORC: 7.5
[1]; [15]
  herbicidal effect rating, ECHORC: 9.0
[2]; [7]
  herbicidal effect rating, SAGPY: 1.5
[2]; [8]
  herbicidal effect rating, SAGPY: 4.5
[2]; [9]
  herbicidal effect rating, SAGPY: 4.5
[2]; [10]
  herbicidal effect rating, SAGPY: 9.0
[2]; [15]
  herbicidal effect rating, SAGPY: 9.0
[3]; [7]
  herbicidal effect rating, MOOVA: 4.5
[3]; [8]
  herbicidal effect rating, MOOVA: 4.5
[3]; [9]
  herbicidal effect rating, MOOVA: 4.5
[3]; [10]
  herbicidal effect rating, MOOVA: 9.0
[3]; [15]
  herbicidal effect rating, MOOVA: 9.0
[4]; Rate 0.0320 kg/ha
  herbicidal effect rating ORYSAT: 1.0
[4]; Rate 0.0620 kg/ha
  herbicidal effect rating ORYSAT: 2.0
[4]; Rate 0.1250 kg/ha
  herbicidal effect rating ORYSAT: 3.5
[4]; Rate 0.2500 kg/ha
  herbicidal effect rating ORYSAT: 9.0
[4]; Rate 0.5000 kg/ha
  herbicidal effect rating ORYSAT: 9.0
[5]; [7]
  herbicidal effect rating, CYPSE: 0.0
[5]; [8]
  herbicidal effect rating, CYPSE: 0.0
[5]; [9]
  herbicidal effect rating, CYPSE: 0.0
[5]; [10]
  herbicidal effect rating, CYPSE: 9.0
[6]; [7]
  herbicidal effect rating, CYPIR: 0.0
[6]; [8]
  herbicidal effect rating, CYPIR: 2.5
[6]; [9]
  herbicidal effect rating, CYPIR: 9.0
[6]; [10]
  herbicidal effect rating, CYPIR: 9.0
[6]; [15]
  herbicidal effect rating, CYPIR: 9.0

## Cc1ccccc1CS(=O)(=O)NC(=O)c1nsc2ccc(-n3c(=O)cc(C(F)(F)F)n(C)c3=O)cc12 [Example 465, 1,2-Benzisothiazole-3-carboxamide, 5-[3,6-dihydro-3-methyl-2,6-dioxo-4-(trifluoromethyl)-1(2H)-pyrimidinyl]-N-[(o-methylbenzyl)sulfonyl]-]
[1]; 0.0320 kg/ha, preemergence
  ECHORC herbicidal rating: 6.0
[1]; 0.0620 kg/ha, preemergence
  ECHORC herbicidal rating: 6.0
[1]; 0.1250 kg/ha, preemergence
  ECHORC herbicidal rating: 7.0
[1]; 0.2500 kg/ha, preemergence
  ECHORC herbicidal rating: 9.0
[2]; 0.0320 kg/ha, preemergence
  SAGPY herbicidal rating: 2.0
[2]; 0.0620 kg/ha, preemergence
  SAGPY herbicidal rating: 5.0
[2]; 0.1250 kg/ha, preemergence
  SAGPY herbicidal rating: 5.0
[2]; 0.2500 kg/ha, preemergence
  SAGPY herbicidal rating: 6.0
[3]; 0.0320 kg/ha, preemergence
  MOOVA herbicidal rating: 2.0
[3]; 0.0620 kg/ha, preemergence
  MOOVA herbicidal rating: 3.0
[3]; 0.1250 kg/ha, preemergence
  MOOVA herbicidal rating: 6.0
[3]; 0.2500 kg/ha, preemergence
  MOOVA herbicidal rating: 9.0
[4]; 0.0320 kg/ha
  ORYSAT herbicidal rating (rice tolerance): 2.0
[4]; 0.0620 kg/ha
  ORYSAT herbicidal rating (rice tolerance): 3.0
[4]; 0.1250 kg/ha
  ORYSAT herbicidal rating (rice tolerance): 4.0
[4]; 0.2500 kg/ha
  ORYSAT herbicidal rating (rice tolerance): 5.0
[5]; 0.0320 kg/ha, preemergence
  CYPSE herbicidal rating: 0.0
[5]; 0.0620 kg/ha, preemergence
  CYPSE herbicidal rating: 4.0
[5]; 0.1250 kg/ha, preemergence
  CYPSE herbicidal rating: 7.0
[5]; 0.2500 kg/ha, preemergence
  CYPSE herbicidal rating: 9.0
[6]; 0.0320 kg/ha, preemergence
  CYPIR herbicidal rating: 0.0
[6]; 0.0620 kg/ha, preemergence
  CYPIR herbicidal rating: 0.0
[6]; 0.1250 kg/ha, preemergence
  CYPIR herbicidal rating: 3.0
[6]; 0.2500 kg/ha, preemergence
  CYPIR herbicidal rating: 8.0

## COc1ccccc1C=C(C#N)c1nsc2ccc(-n3c(=O)cc(C(F)(F)F)n(C)c3=O)cc12 [Example 599, 1,2-Benzisothiazole-3-acetonitrile, 5-[3,6-dihydro-3-methyl-2,6-dioxo-4-(trifluoromethyl)-1(2H)-pyrimidinyl]-alpha-(o-methoxybenzylidene)-]
[1]; [7]
  herbicidal effect rating, ECHORC: 0.0
[1]; [8]
  herbicidal effect rating, ECHORC: 0.0
[1]; [9]
  herbicidal effect rating, ECHORC: 0.0
[1]; [10]
  herbicidal effect rating, ECHORC: 4.0
[2]; [7]
  herbicidal effect rating, SAGPY: 0.0
[2]; [8]
  herbicidal effect rating, SAGPY: 0.0
[2]; [9]
  herbicidal effect rating, SAGPY: 0.0
[2]; [10]
  herbicidal effect rating, SAGPY: 0.0
[3]; [7]
  herbicidal effect rating, MOOVA: 6.0
[3]; [8]
  herbicidal effect rating, MOOVA: 7.0
[3]; [10]
  herbicidal effect rating, MOOVA: 7.0
[4]; Rate 0.0320 kg/ha
  herbicidal effect rating ORYSAT: 2.0
[4]; Rate 0.0620 kg/ha
  herbicidal effect rating ORYSAT: 3.0
[4]; Rate 0.1250 kg/ha
  herbicidal effect rating ORYSAT: 3.0
[4]; Rate 0.2500 kg/ha
  herbicidal effect rating ORYSAT: 5.0
[5]; [8]
  herbicidal effect rating, CYPSE: 0.0
[5]; [10]
  herbicidal effect rating, CYPSE: 0.0
[6]; [7]
  herbicidal effect rating, CYPIR: 0.0
[6]; [8]
  herbicidal effect rating, CYPIR: 0.0
[6]; [10]
  herbicidal effect rating, CYPIR: 3.0
